Reference: paper PMC10060569 (Frontiers in Pharmacology, 2023)

Experiments:
hP2X7R = biological target: T1, hP2X7R (Homo sapiens, UniProt Q99572); assay: TEVC of ATP4--induced currents, hP2X7R in X. laevis oocytes (modified steady-state protocol); format: cell-based; conditions: for IC50: estimated from few tested concentrations
T1 construct: expressed in transfected cells; host or cells: Xenopus laevis oocytes (cRNA injection)
T1 sequence (Q99572 1-595): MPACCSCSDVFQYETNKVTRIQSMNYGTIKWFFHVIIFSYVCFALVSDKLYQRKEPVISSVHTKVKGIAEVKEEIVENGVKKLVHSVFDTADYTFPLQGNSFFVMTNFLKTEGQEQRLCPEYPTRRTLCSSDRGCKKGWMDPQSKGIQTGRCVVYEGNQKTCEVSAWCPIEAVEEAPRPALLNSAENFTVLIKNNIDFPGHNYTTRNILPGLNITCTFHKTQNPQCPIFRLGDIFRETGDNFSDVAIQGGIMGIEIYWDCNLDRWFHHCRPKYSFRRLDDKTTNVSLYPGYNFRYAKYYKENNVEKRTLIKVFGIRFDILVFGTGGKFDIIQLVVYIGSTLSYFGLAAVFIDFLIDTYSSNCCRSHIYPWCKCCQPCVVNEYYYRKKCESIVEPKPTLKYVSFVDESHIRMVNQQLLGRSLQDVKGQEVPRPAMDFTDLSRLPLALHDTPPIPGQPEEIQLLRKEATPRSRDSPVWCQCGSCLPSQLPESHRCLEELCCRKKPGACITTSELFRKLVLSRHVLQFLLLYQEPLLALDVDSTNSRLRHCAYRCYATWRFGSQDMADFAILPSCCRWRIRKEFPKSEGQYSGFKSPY
Description: Ion currents mediated by P2X receptors were evoked by the indicated concentration of ATP or α,β-meATP and were recorded 1 or 2 days after cRNA injection at ambient temperature at a holding potential of −60 mV by two-electrode voltage clamp (TEVC) as previously described ([Hausmann et al., 2006]). Calcium-free ORi^− solution (90 mM NaCl, 1 mM KCl, 2 mM MgCl2, 10 mM HEPES, pH 7.4) was used to avoid bias due to calcium-activated chloride channels (CaCC) endogenously expressed in X. laevis oocytes ([Miledi, 1982]; [Methfessel et al., 1986]). For recordings of wt-hP2X7R, the composition of the ORi^− solution was modified according to protocols described previously and contained 100 mM NaCl, 2.5 mM KCl, 1 mM MgCl2, 5 mM HEPES, pH 7.4 ([Klapperstück et al., 2000]). The oocytes were continuously superfused with ORi^− by gravity flow (5–10 ml/min). The agonists ATP or α,β-meATP and the investigated NSAIDs were diluted in ORi^− on the day of the recording. The following agonist concentrations were used for the different P2X subtypes: 1 μM ATP (hP2X1R mutant, hP2X3R, rP2X3R, S^15V-hP2X3R, and S^15V-rP2X3R); 10 μM ATP (hP2X2R and hP2X4R); 300 μM free ATP^4- (hP2X7R); and 1 μM α,β-meATP (hP2X2/3R). A peak current protocol (Supplementary Figure S1) was used to analyze fast- and intermediate desensitizing P2XR subtypes (P2X1R, P2X3R, and S^15V-P2X3R), and a steady-state protocol (Supplementary Figure S2) was used for slowly or partially desensitizing P2X subtypes (P2X2R, P2X2/3R, and P2X4R). For recordings of P2X7R, a modified steady-state protocol was used ([Hausmann et al., 2006]). The application of different bath solutions was controlled by computer-operated magnetic valves controlled by the CellWorks E 5.5.1 software (npi electronic, Tamm, Germany).
In the case of hP2X7R, the control current in the absence of the antagonist had to be extrapolated (Supplementary Figure S4 and Supplementary Figure S5) presuming a linear increase in permeability during continuous ATP application ([North, 2002]) since the permeability of the receptor is affected by the antagonist.
For recordings of P2X7R, most scientists use divalent-free solutions such as ORi supplemented with 100 µM flufenamic acid (FFA) as an unselective ion channel blocker to inhibit non-specific chloride conductance in the absence of divalent ions ([Weber et al., 1995]; [Hülsmann et al., 2003]). However, since FFA is one of the investigated NSAIDs, this supplement was not reasonable. Therefore, the composition of the ORi-solution was modified as follows: 100 mM NaCl, 2.5 mM KCl, 1 mM MgCl2, 5 mM HEPES, pH 7.4, and according to former protocols ([Klapperstück et al., 2000]), a free ATP^4−concentration of 300 µM was adjusted.

[1] = biological target: T2, native pig P2X2/3Rs in DRG neurons (Sus scrofa, UniProt F1RI70+I3L7H5); assay: Whole-cell patch-clamp of α,β-meATP-induced currents in pig DRG neurons
T2 sequence (I3L7H5 1-397): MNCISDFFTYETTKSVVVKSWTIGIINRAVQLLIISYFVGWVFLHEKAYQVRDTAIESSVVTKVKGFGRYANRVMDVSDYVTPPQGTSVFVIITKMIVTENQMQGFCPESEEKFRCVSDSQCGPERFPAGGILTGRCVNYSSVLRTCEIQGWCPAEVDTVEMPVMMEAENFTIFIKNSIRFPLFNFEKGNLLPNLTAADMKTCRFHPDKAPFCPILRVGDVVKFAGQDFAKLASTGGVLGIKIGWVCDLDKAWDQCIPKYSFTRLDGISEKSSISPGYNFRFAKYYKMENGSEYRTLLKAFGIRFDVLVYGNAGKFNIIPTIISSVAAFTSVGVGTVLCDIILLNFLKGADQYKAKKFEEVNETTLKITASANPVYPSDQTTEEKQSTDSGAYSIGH
T2 sequence (F1RI70 1-417): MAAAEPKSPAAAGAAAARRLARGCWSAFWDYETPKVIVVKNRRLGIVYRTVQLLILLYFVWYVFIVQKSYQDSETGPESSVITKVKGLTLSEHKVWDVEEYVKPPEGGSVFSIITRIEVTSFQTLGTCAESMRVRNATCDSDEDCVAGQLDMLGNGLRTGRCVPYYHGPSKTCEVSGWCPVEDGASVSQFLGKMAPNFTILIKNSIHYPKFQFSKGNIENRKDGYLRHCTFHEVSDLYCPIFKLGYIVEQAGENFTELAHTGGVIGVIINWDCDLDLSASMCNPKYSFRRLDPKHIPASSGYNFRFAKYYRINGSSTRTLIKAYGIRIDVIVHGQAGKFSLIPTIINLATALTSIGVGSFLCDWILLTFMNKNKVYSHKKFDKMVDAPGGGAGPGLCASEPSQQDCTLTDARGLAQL
Description: For this purpose, pigs of the German Landrace breed, with an average age of 15 weeks (14.6 SD2.7) and weight of 47.3 kg (SD11.2), were euthanized using an overdose of pentobarbital 60 mg/kg body weight. Subsequently, the DRG were collected. The DRG of pigs were transferred on ice, and fine excision was performed in ice-cold DMEM F12 medium containing 10% FBS and treated with 1 mg/ml collagenase P, 1 mg/ml trypsin T1426, and 0.1 mg/ml DNAse for digestion. Then, the DRG were cut into small pieces inside the digestion medium for surface enlargement and incubated at 37°C and 5% CO2 for 120 ±30 min. After approximately 60 min in the digestion medium, the DRG were triturated using a glass pipette. After the full incubation time, they were triturated thrice using custom-pulled glass pipettes with decreasing tip diameters (from ∼1.1–1.2 to ∼0.3–0.4 mm). For further purification, the DRG were centrifuged at 500 G and 4°C twice for 4 minutes each, and the pellets were suspended in DMEM F12 with 10% FBS. They were subsequently separated from lighter cell fragments and myelin by centrifugation of a Percoll gradient containing a 60% Percoll and a 25% Percoll gradient for 20 min at 500 G. DRG neurons were plated on coverslips coated with poly-D-lysine (100 μg/ml), laminin (10 μg/ml), and fibronectin (10 μg/ml). Neurons were then cultured in neurobasal A medium supplemented with B27, penicillin, streptomycin, and L-glutamine and used for voltage-clamp recordings after 12–72 h in culture.
Whole-cell voltage-clamp recordings of DRG neurons were performed using glass electrodes with micropipette tip resistances of 1.3–3.5 MΩ, pulled and fire-polished with a Zeitz DMZ-puller. The intracellular solution contained 10 mM NaCl, 140 mM CsF, 10 mM HEPES, 1 mM EGTA, 5 mM glucose, and 5 mM TEA-Cl (adjusted to pH 7.3 using CsOH). The extracellular bathing solution contained 140 mM NaCl, 3 mM KCl, 1 mM MgCl2, 1 mM CaCl2, 10 mM HEPES, and 20 mM glucose (adjusted to pH 7.4 using NaOH). The liquid junction potential was corrected by −7.8 mV. […]

[2] = 100 µM diclofenac, 10 µM α,β-meATP, n = 11

| reversibility of the effect on hP2X7R-mediated current responses (hP2X7R; slope of current before and after FFA application) | SMILES | reduction of ATP4--induced current amplitude by 300 µM diclofenac (hP2X7R; 300 µM diclofenac, 300 µM free ATP4-) | IC50 (hP2X7R; 300 µM free ATP4-) | mean block ± SD, fourth application vs. mean of third and fifth application [1, 2] | mean block ± SD, fourth application vs. preceding third application [1, 2] | inhibition at 100 µM ([1]; DRG neuron, read-out: inhibition of α,β-meATP-elicited whole-cell currents by 100 µM diclofenac) |
| --- | --- | --- | --- | --- | --- | --- |
|  | O=C(O)Cc1ccccc1Nc1c(Cl)cccc1Cl [Diclofenac, diclofenac] | approximately 33% | > 300 µM | 70.9 ± 37.2% | 70.2 ± 34.3% | 70.5% |
| potentially irreversible | O=C(O)c1ccccc1Nc1cccc(C(F)(F)F)c1 [Flufenamic acid, flufenamic acid] |  | ~900 µM |  |  |  |
